Experimental data published in patent publication US6376426B1, “Herbicidal 3-(heterocycl-1-yl)-uracils” (BASF Aktiengesellschaft, priority 1999, dated 2002).

Experiments:
Assay type in all cases: in vivo
[1] = system: Setaria viridis; experiment: Pre-emergence herbicidal test, SETVI; design: key to herbicidal effect (0-9 scale) SETVI / herbicidal rating SETVI: A rating 0 indicates growth as untreated control; a rating 9 indicates death; conditions: for herbicidal rating SETVI: PRE, 0-9 scale, 21 days after spraying
[2] = system: Alopecurus myosuroides; experiment: Pre-emergence herbicidal test, ALOMY; design: key to herbicidal effect (0-9 scale) ALOMY / herbicidal rating ALOMY: A rating 0 indicates growth as untreated control; a rating 9 indicates death; conditions: PRE, 0-9 scale, 21 days after spraying
[3] = system: Ipomoea hederacea; experiment: Pre-emergence herbicidal test, IPOHE; design: key: A rating 0 indicates growth as untreated control; a rating 9 indicates death; conditions: 0-9 scale, 21 days after spraying
[4] = system: Galium aparine; experiment: Pre-emergence herbicidal test, GALAP; design: key to herbicidal effect (0-9 scale) GALAP / herbicidal rating GALAP: A rating 0 indicates growth as untreated control; a rating 9 indicates death; conditions: for herbicidal rating GALAP: PRE, 0-9 scale, 21 days after spraying
[5] = system: Abutilon theophrasti; experiment: Pre-emergence herbicidal test, ABUTH; design: key to herbicidal effect (0-9 scale) ABUTH / herbicidal rating ABUTH: A rating 0 indicates growth as untreated control; a rating 9 indicates death; conditions: for herbicidal rating ABUTH: PRE, 0-9 scale, 21 days after spraying
[6] = system: Stellaria media; experiment: Pre-emergence herbicidal test, STEME; design: key to herbicidal effect (0-9 scale) STEME / herbicidal rating STEME: A rating 0 indicates growth as untreated control; a rating 9 indicates death; conditions: for herbicidal rating STEME: PRE, 0-9 scale, 21 days after spraying
[7] = system: Zea mays; experiment: Post-emergence herbicidal test, ZEAMX; design: key: A rating 0 indicates growth as untreated control; a rating 9 indicates death; conditions: 0-9 scale, 21 days after spraying
Outline: (§1)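 Herbicidal effect is recorded on a linear 0-9 scale, where 0 means growth like untreated control and 9 means death, with one unit approximating 10% more effect.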

[8] = system: Setaria viridis; experiment: Post-emergence herbicidal test, SETVI; design: key to herbicidal effect (0-9 scale) SETVI / herbicidal rating SETVI: A rating 0 indicates growth as untreated control; a rating 9 indicates death; conditions: POST, 0-9 scale, 21 days after spraying
Outline: as §1

[9] = system: Echinochloa crus-galli; experiment: Post-emergence herbicidal test, ECHCG; design: key: A rating 0 indicates growth as untreated control; a rating 9 indicates death; conditions: 0-9 scale, 21 days after spraying
Outline: as §1

[10] = system: Alopecurus myosuroides; experiment: Post-emergence herbicidal test, ALOMY; design: key: A rating 0 indicates growth as untreated control; a rating 9 indicates death; conditions: 0-9 scale, 21 days after spraying
Outline: (§2)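 Compounds in acetone solution were diluted with water and sprayed post-emergence onto foliage and soil at about 1000, 800, 400, 250 or 100 g/ha. Plants were kept on greenhouse benches under conventional care.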

[11] = system: Ipomoea hederacea; experiment: Post-emergence herbicidal test, IPOHE; design: key to herbicidal effect (0-9 scale) IPOHE / herbicidal rating IPOHE: A rating 0 indicates growth as untreated control; a rating 9 indicates death; conditions: for herbicidal rating IPOHE: POST, 0-9 scale, 21 days after spraying
Outline: as §2

[12] = system: Galium aparine; experiment: Post-emergence herbicidal test, GALAP; design: key to herbicidal effect (0-9 scale) GALAP / herbicidal rating GALAP: A rating 0 indicates growth as untreated control; a rating 9 indicates death; conditions: for herbicidal rating GALAP: POST, 0-9 scale, 21 days after spraying
Outline: as §1

[13] = system: Abutilon theophrasti; experiment: Post-emergence herbicidal test, ABUTH; design: key to herbicidal effect (0-9 scale) ABUTH / herbicidal rating ABUTH: A rating 0 indicates growth as untreated control; a rating 9 indicates death; conditions: for herbicidal rating ABUTH: POST, 0-9 scale, 21 days after spraying
Outline: as §1

[14] = system: Stellaria media; experiment: Post-emergence herbicidal test, STEME; design: key to herbicidal effect (0-9 scale) STEME / herbicidal rating STEME: A rating 0 indicates growth as untreated control; a rating 9 indicates death; conditions: for herbicidal rating STEME: POST, 0-9 scale, 21 days after spraying
Outline: as §1

[15] = system: representative range of plants; experiment: Pre-emergence herbicidal test, summary over the plants tested; conditions: 100 g/ha
Method: (§3) To evaluate their herbicidal activity, compounds according to the invention are tested using a representative range of plants:
(§4) The pre-emergence tests involve spraying a liquid formulation of the compound onto the soil in which the seeds of the plant species mentioned above has recently been sown.
The soil used in the tests is a prepared horticultural loam. The formulations used in the tests are prepared from solutions of the test compounds in acetone containing 0.4% by weight of an alkylphenol/ethylene oxide condensate available under the trade mark TRITON X-155. […] In these tests untreated sown soil are used as controls.
(§5) The herbicidal effects of the test compounds are assessed visually twenty-one days after spraying the foliage and the soil and are recorded on a 0-9 scale. A rating 0 indicates growth as untreated control, a rating 9 indicates death. An increase of 1 unit on the linear scale approximates to a 10% increase in the level of effect.

[16] = system: representative range of plants; experiment: Post-emergence herbicidal test, summary over the plants tested; conditions: 100 g/ha
Method: as §3
[…] After spraying, the plants are placed on greenhouse benches and are cared for in the usual manner, commensurate with conventional greenhouse practices.
as §5

[17] = system: representative range of plants; experiment: Herbicidal activity, pre- and post-emergence, overall; conditions: both in pre- and post-emergence
Method: as §3, §4
The soil used in the tests is a prepared horticultural loam. The formulations used in the tests are prepared from solutions of the test compounds in acetone containing 0.4% by weight of an alkylphenol/ethylene oxide condensate available under the trade mark TRITON X-155. These acetone solutions are diluted with water and the resulting formulations applied at dosage levels corresponding to 1000 g and 250 g/ha of active material per hectare in a volume equivalent to 900 litres per hectare. In these tests untreated sown soil are used as controls.
These acetone solutions are diluted with water and the resulting formulations applied at dosage levels equivalent to about 1000, 800, 400, 250 or 100 g/ha per hectare of test compound per pot. After spraying, the plants are placed on greenhouse benches and are cared for in the usual manner, commensurate with conventional greenhouse practices.
as §5

Cn1c(C(F)(F)F)cc(=O)n(-n2ccc3c(Cl)cccc32)c1=O [Example 169, 3-(4-Chloro-indol-1-yl)-1-methyl-6-trifluoromethylpyrimidine-2,4-dione]
herbicidal rating SETVI ([1]; 12.5 g/ha): 8
herbicidal rating SETVI ([1]; 25 g/ha): 9
herbicidal rating SETVI ([1]; 100 g/ha): 9
herbicidal rating SETVI ([1]; 400 g/ha): 9
control of Setaria ([1]; pre-emergence, 25 g/ha): good control
herbicidal rating ALOMY ([2]; 12.5 g/ha): 2
herbicidal rating ALOMY ([2]; 25 g/ha): 5
herbicidal rating ALOMY ([2]; 100 g/ha): 7
herbicidal rating ALOMY ([2]; 400 g/ha): 9
herbicidal rating IPOHE ([3]; 12.5 g/ha): 2
herbicidal rating IPOHE ([3]; 25 g/ha): 4
herbicidal rating IPOHE ([3]; 100 g/ha): 8
herbicidal rating IPOHE ([3]; 400 g/ha): 9
herbicidal rating GALAP ([4]; 12.5 g/ha): 7
herbicidal rating GALAP ([4]; 25 g/ha): 8
herbicidal rating GALAP ([4]; 100 g/ha): 9
herbicidal rating GALAP ([4]; 400 g/ha): 9
control of Galium ([4]; pre-emergence, 25 g/ha): good control
herbicidal rating ABUTH ([5]; 12.5 g/ha): 5
herbicidal rating ABUTH ([5]; 25 g/ha): 9
herbicidal rating ABUTH ([5]; 100 g/ha): 9
herbicidal rating ABUTH ([5]; 400 g/ha): 9
control of Abutilon ([5]; pre-emergence, 25 g/ha): good control
herbicidal rating STEME ([6]; 12.5 g/ha): 6
herbicidal rating STEME ([6]; 25 g/ha): 8
herbicidal rating STEME ([6]; 100 g/ha): 9
herbicidal rating STEME ([6]; 400 g/ha): 9
control of Stellaria ([6]; pre-emergence, 25 g/ha): good control
herbicidal rating ZEAMX ([7]; 25 g/ha): 0
herbicidal rating ZEAMX ([7]; 100 g/ha): 3
herbicidal rating ZEAMX ([7]; 400 g/ha): 5
herbicidal rating SETVI ([8]; 25 g/ha): 6
herbicidal rating SETVI ([8]; 100 g/ha): 9
herbicidal rating SETVI ([8]; 400 g/ha): 9
herbicidal rating ECHCG ([9]; 25 g/ha): 5
herbicidal rating ECHCG ([9]; 100 g/ha): 9
herbicidal rating ECHCG ([9]; 400 g/ha): 9
herbicidal rating ALOMY ([10]; 25 g/ha): 2
herbicidal rating ALOMY ([10]; 100 g/ha): 6
herbicidal rating ALOMY ([10]; 400 g/ha): 9
herbicidal rating IPOHE ([11]; 25 g/ha): 9
herbicidal rating IPOHE ([11]; 100 g/ha): 9
herbicidal rating IPOHE ([11]; 400 g/ha): 9
control of Ipomoea ([11]; post-emergence, 12.5 g/ha): excellent control
herbicidal rating GALAP ([12]; 25 g/ha): 9
herbicidal rating GALAP ([12]; 100 g/ha): 9
herbicidal rating GALAP ([12]; 400 g/ha): 9
control of Galium ([12]; post-emergence, 12.5 g/ha): excellent control
herbicidal rating ABUTH ([13]; 25 g/ha): 9
herbicidal rating ABUTH ([13]; 100 g/ha): 9
herbicidal rating ABUTH ([13]; 400 g/ha): 9
control of Abutilon ([13]; post-emergence, 12.5 g/ha): excellent control
herbicidal rating STEME ([14]; 25 g/ha): 8
herbicidal rating STEME ([14]; 100 g/ha): 9
herbicidal rating STEME ([14]; 400 g/ha): 9
control of Stellaria ([14]; post-emergence, 12.5 g/ha): excellent control
control of the weeds [15]: all of the weeds except Alopecurus were well controlled
control of the weeds [16]: good cross spectrum control on both broadleaf weeds and grasses
herbicidal performance [17]: excellent performance
